Measured values reported in US9617267B2, “Compounds and methods for kinase modulation, and indications therefor” (Plexxikon Inc., priority 2009, dated 2017).
pIC50: −log10 of the molar value. Read-outs that look alike come from different tables or passages of the source.

How the values were obtained:
B-Raf [1] = target: B-Raf (Homo sapiens (Human), UniProt P15056); assay: B-Raf kinase activity biochemical assay (AlphaScreen, biotin-MEK1 phosphorylation); conditions: B-Raf
In short: (§1)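 Compounds from a 0.1 mM DMSO stock were tested at 8 serially diluted points. Kinase reactions with 100 μM ATP (final) ran 45 min at room temperature, then were stopped with EDTA buffer containing anti-phospho-MEK1/2 antibody plus streptavidin donor and protein A acceptor beads.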

B-Raf [2] = assay: as above; conditions: for Biochemical activity ratio B/V600E: ratio of IC50 B-Raf / B-Raf V600E; for Biochemical activity ratio B/C: ratio of IC50 B-Raf / c-Raf-1
In short: as §1

B-Raf V600E = B-Raf V600E (Homo sapiens (Human), UniProt P15056, V600E); assay: B-Raf V600E kinase activity biochemical assay (AlphaScreen, biotin-MEK1 phosphorylation); conditions: for IC50: B-Raf V600E; for Biochemical activity ratio V600E/C: ratio of IC50 B-Raf V600E / c-Raf-1
Chain of B-Raf V600E (P15056 whole entry V600E): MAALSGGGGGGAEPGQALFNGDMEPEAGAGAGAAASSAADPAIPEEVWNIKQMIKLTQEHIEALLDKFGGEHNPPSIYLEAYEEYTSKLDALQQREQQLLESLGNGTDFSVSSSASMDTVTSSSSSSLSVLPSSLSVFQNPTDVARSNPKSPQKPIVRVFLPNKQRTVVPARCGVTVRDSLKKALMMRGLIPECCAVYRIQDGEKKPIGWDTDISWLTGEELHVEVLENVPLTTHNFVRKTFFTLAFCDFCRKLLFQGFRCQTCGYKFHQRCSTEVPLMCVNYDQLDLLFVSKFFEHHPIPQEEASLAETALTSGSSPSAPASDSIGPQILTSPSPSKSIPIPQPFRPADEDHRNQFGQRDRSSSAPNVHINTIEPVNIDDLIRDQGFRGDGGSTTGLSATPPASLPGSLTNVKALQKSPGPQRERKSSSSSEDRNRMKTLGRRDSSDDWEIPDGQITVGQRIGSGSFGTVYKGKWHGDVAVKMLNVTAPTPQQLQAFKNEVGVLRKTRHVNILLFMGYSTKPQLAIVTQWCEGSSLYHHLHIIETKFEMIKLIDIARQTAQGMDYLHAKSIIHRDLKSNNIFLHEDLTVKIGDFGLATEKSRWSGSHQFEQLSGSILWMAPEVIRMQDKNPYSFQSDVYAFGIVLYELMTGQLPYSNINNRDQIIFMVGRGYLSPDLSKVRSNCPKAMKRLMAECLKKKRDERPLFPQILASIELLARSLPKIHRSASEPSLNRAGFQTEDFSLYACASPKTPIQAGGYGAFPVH
In short: as §1

c-Raf-1 = c-Raf-1 (Homo sapiens, UniProt P04049); assay: c-Raf-1 kinase activity biochemical assay (AlphaScreen, biotin-MEK1 phosphorylation)
Chain of c-Raf-1 (P04049 whole entry, looked up): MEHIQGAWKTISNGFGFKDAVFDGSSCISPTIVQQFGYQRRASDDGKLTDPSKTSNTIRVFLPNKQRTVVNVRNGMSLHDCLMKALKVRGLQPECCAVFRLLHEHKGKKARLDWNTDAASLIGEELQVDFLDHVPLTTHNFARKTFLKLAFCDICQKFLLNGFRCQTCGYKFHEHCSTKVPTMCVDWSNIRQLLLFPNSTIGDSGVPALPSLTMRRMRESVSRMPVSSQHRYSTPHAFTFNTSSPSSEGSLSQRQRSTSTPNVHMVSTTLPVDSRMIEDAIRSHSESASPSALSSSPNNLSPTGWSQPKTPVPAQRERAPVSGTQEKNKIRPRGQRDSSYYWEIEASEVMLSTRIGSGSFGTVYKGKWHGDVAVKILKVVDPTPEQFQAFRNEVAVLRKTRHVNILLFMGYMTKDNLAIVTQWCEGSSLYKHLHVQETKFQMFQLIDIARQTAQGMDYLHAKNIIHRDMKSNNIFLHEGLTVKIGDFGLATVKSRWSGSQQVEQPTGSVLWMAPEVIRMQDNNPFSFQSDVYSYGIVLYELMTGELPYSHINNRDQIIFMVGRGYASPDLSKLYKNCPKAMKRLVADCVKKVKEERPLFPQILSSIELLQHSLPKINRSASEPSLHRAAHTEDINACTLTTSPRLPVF
In short: as §1

[3] = Relative solubility by turbidity threshold concentration in aqueous buffers (pH 1.5, 4.5, 6.8, 7.4); type: physicochemical; conditions: for turbidity threshold (L, M, H) 1.4: pH 1.4 [sic] (method: SGF pH 1.5); for turbidity threshold (L, M, H) 4.5: pH 4.5 (SIF); for turbidity threshold (L, M, H) 6.8: pH 6.8 (SIF); for turbidity threshold (L, M, H) 7.4: pH 7.4 (HEPES)
In short: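 Solubility class (high >250 μM, moderate 31.3–250 μM, low <31.3 μM) comes from the concentration where absorbance reaches a 0.01 threshold, averaged across 490/535/650 nm. Samples were compound dilutions from DMSO stock, 1 μL into 99 μL buffer at pH 1.5, 4.5, 6.8 or 7.4.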

CYP1A2 = CYP1A2 (Homo sapiens (Human), UniProt P05177); assay: CYP enzyme inhibition, fluorescent substrate (CEC)
Chain of CYP1A2 (P05177 whole entry): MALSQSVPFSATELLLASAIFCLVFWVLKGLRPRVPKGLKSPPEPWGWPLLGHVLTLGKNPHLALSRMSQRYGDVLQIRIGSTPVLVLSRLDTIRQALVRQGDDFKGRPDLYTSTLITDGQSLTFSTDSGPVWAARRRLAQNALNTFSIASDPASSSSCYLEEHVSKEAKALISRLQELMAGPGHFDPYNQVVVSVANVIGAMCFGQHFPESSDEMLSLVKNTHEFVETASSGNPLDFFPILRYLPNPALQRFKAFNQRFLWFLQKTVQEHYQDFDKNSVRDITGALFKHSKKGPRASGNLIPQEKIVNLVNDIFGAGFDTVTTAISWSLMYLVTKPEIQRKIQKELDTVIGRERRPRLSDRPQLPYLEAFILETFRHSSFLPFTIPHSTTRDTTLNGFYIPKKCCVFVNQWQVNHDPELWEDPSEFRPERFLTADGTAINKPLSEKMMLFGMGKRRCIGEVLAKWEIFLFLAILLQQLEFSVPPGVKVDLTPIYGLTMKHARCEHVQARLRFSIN
In short: (§2)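 IC50 derived from loss of fluorescent metabolite across a 10-point 1:1 dilution series. CYP2D6: 1.5 pmol enzyme, 1.5 μM AMMC, 30 min at 37 °C, 409/530 nm; CYP1A2: 0.5 pmol, 5 μM CEC, 15 min, 409/460 nm. Compounds pre-incubated 10 min in NADPH-regenerating mix.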

CYP2C19 = CYP2C19 (Homo sapiens (Human), UniProt P33261); assay: CYP enzyme inhibition, fluorescent substrate (CEC)
Chain of CYP2C19 (P33261 whole entry): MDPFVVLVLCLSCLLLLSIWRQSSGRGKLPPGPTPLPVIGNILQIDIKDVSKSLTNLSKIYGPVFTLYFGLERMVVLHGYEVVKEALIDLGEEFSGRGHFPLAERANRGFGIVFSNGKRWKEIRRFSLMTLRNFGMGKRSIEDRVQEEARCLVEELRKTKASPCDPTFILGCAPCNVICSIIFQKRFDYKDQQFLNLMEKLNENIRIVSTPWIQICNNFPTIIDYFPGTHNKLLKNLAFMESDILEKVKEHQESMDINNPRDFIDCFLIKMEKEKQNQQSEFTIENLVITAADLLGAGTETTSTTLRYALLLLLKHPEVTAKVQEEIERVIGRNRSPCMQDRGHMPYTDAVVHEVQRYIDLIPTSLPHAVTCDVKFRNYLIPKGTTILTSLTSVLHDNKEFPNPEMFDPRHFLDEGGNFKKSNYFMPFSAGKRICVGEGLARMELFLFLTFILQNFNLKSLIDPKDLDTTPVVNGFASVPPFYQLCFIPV
In short: (§3)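 10-pt 1:1 serial dilution in co-factor mix (DMSO stock 100 mM); 10 min preincubation, 37 °C; reaction at 37 °C. Readout: fluorescent metabolite of probe substrate. IC50 from signal vs [compound].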

CYP2C9 = CYP2C9 (Homo sapiens (Human), UniProt P11712); assay: CYP enzyme inhibition, fluorescent substrate (MFC)
Chain of CYP2C9 (P11712 whole entry): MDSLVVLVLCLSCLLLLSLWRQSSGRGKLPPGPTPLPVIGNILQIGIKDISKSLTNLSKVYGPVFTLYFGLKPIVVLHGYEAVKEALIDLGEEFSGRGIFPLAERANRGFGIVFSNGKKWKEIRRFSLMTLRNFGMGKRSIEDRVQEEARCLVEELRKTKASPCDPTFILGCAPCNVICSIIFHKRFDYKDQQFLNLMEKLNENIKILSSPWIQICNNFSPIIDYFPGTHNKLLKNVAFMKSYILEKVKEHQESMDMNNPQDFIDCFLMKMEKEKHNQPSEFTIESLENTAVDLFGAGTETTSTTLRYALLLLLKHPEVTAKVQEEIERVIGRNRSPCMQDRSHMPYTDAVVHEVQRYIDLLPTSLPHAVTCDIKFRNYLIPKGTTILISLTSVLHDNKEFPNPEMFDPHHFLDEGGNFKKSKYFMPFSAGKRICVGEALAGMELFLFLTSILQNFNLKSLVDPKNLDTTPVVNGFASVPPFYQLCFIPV
In short: as §3

CYP2D6 = CYP2D6 (Homo sapiens (Human), UniProt P10635); assay: CYP enzyme inhibition, fluorescent substrate (AMMC); type: in vitro ADME; conditions: read-out: Cyp IC50 2D6
Chain of CYP2D6 (P10635 whole entry): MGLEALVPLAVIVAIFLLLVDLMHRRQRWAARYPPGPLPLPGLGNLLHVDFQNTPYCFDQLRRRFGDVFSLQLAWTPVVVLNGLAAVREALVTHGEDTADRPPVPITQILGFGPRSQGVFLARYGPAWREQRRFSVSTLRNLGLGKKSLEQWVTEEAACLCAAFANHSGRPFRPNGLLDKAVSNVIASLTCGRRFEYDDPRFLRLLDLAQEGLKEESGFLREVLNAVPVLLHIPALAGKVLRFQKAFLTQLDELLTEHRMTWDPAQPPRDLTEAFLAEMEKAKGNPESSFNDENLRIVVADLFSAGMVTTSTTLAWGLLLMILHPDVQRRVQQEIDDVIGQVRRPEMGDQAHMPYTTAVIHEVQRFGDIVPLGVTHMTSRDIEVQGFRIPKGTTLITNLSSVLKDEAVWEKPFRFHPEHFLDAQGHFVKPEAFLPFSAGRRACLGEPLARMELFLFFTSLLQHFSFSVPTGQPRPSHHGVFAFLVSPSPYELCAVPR
In short: as §2

CYP3A4(BFC) = CYP3A4(BFC) (Homo sapiens (Human), UniProt P08684); assay: CYP enzyme inhibition, fluorescent substrate BFC
Chain of CYP3A4(BFC) (P08684 whole entry): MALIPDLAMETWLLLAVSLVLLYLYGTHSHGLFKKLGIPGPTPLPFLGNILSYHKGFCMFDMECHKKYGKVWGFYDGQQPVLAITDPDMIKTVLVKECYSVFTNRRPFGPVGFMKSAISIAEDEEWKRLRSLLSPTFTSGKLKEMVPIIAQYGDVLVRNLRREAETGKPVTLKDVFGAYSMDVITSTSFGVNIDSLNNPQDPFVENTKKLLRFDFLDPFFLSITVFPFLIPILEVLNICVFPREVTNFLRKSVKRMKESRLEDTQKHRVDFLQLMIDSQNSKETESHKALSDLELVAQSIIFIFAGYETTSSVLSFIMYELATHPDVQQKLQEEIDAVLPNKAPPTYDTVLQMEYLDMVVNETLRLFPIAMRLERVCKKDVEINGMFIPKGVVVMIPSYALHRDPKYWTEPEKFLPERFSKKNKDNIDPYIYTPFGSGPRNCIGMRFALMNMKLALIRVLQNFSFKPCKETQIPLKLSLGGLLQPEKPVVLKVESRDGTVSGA
In short: as §3

CYP3A4(BQ) = CYP3A4(BQ) (Homo sapiens (Human), UniProt P08684); assay: CYP enzyme inhibition, fluorescent substrate BQ
Chain of CYP3A4(BQ) (P08684 whole entry): as above
Protocol: CYP (Cytochrome P450) enzymes are the major drug metabolizing enzymes present in the liver. The inhibition of CYP enzyme activity (IC50) for each of CYP1A2, CYP2C19, CYP2C9, CYP2D6, CYP3A4(BFC) and CYP3A4(BQ) is determined for compounds, where inhibition of metabolism of a known substrate leads to a decrease in the fluorescence of the metabolized product. The fluorescence of the product is monitored as a function of compound concentration.
Compounds are dissolved in dimethyl sulfoxide to a concentration of 100 mM. These are diluted 1 μL into 82 μL of acetonitrile. […] These are then serially diluted 1:1 (160 μL to 160 μL co-factor mix) for a total of 10 points. A 10 μL aliquot of this final mixture is dispensed into 384 well assay plates and incubated for 10 minutes at 37° C. […] Assay plates are incubated at 37° C. […] The signal versus compound concentration is used to determine the IC50. The enzymes and substrates for this assay are obtained from BD Biosciences.

[4] = read-out: Cyp IC50 2C19, CYP2C19, substrate CEC
[5] = read-out: Cyp IC50 2C9, CYP2C9, substrate MFC
[6] = read-out: Cyp IC50 3A4(BFC), CYP3A4, substrate BFC
[7] = read-out: Cyp IC50 3A4(BQ), CYP3A4, substrate BQ

Chain of B-Raf (Homo sapiens (Human), UniProt P15056) (P15056 whole entry): as the sequence (P15056 whole entry V600E) above, with E600V counted along it

Compound | IC50 (B-Raf [1]) [µM] | Biochemical activity ratio B/V600E (B-Raf [2]) | Biochemical activity ratio B/C (B-Raf [2]) | IC50 (B-Raf V600E) [µM] | Biochemical activity ratio V600E/C (B-Raf V600E) | IC50 (c-Raf-1) [µM] | turbidity threshold (L, M, H) 1.4 [3] | turbidity threshold (L, M, H) 4.5 [3] | turbidity threshold (L, M, H) 6.8 [3] | turbidity threshold (L, M, H) 7.4 [3] | pIC50 (CYP1A2; human, 15 min) | pIC50 (CYP2C19; [4]) | pIC50 (CYP2C9; [5]) | pIC50 (CYP2D6) | pIC50 (CYP3A4(BFC); [6]) | pIC50 (CYP3A4(BQ); [7]) | pIC50 (CYP2C9) | pIC50 (CYP3A4(BQ)) | further results
Cc1ncnc2[nH]cc(C(=O)c3c(F)ccc(NS(=O)(=O)c4ccc(C(F)(F)F)cc4)c3F)c12 [P-1001, N-[2,4-Difluoro-3-(4-methyl-7H-pyrrolo[2,3-d]pyrimidine-5-carbonyl)-phenyl]-4-trifluoromethyl-benzenesulfonamide] | < 0.1 | 0.1-10 | 0.1-10 | > 0.1 | >10 | < 0.1 | H (high solubility if the threshold concentration is >250 μm) | M (moderate solubility if the threshold concentration is 31.3 μM to 250 μM) | M (moderate solubility if the threshold concentration is 31.3 μM to 250 μM) | M (moderate solubility if the threshold concentration is 31.3 μM to 250 μM) | < 5.00 | < 5.00 | < 5.00 | < 5.00 | > 5.30 | < 5.00 |  |  | 
CCCS(=O)(=O)Nc1ccc(F)c(C(=O)c2c[nH]c3ncnc(OCC)c23)c1F [P-1002, Propane-1-sulfonic acid [3-(4-ethoxy-7H-pyrrolo[2,3-d]pyrimidine-5-carbonyl)-2,4-difluoro-phenyl]-amide] | > 0.1 | 0.1-10 | >10 | < 0.1 | 0.1-10 | < 0.1 | H (high solubility if the threshold concentration is >250 μm) | H (high solubility if the threshold concentration is >250 μm) | H (high solubility if the threshold concentration is >250 μm) | H (high solubility if the threshold concentration is >250 μm) |  |  |  | < 5.00 |  |  | < 5.00 | < 5.00 | pIC50 (CYP1A2): < 5.00; pIC50 (CYP2C19): < 5.00; pIC50 (CYP3A4(BFC)): < 5.00
Cc1ncnc2[nH]cc(C(=O)c3c(F)ccc(NS(=O)(=O)CC(C)C)c3F)c12 [P-1003, 2-Methyl-propane-1-sulfonic acid [2,4-difluoro-3-(4-methyl-7H-pyrrolo[2,3-d]pyrimidine-5-carbonyl)-phenyl]-amide] | > 0.1 | >10 | >10 | < 0.1 | 0.1-10 | < 0.1 | H (high solubility if the threshold concentration is >250 μm) | M (moderate solubility if the threshold concentration is 31.3 μM to 250 μM) | M (moderate solubility if the threshold concentration is 31.3 μM to 250 μM) | M (moderate solubility if the threshold concentration is 31.3 μM to 250 μM) | < 5.00 | < 5.00 |  | < 5.00 | < 5.00 |  | 5.00 to 5.30 | 5.00 to 5.30 | 
CCCS(=O)(=O)Nc1ccc(F)c(C(=O)c2c[nH]c3ncnc(Nc4ccccc4)c23)c1F [P-1048, Propane-1-sulfonic acid [2,4-difluoro-3-(4-phenylamino-7H-pyrrolo[2,3-d]pyrimidine-5-carbonyl)-phenyl]-amide] |  |  |  | < 0.1 |  |  |  |  |  |  | < 5.00 | < 5.00 | < 5.00 | < 5.00 | < 5.00 | < 5.00 |  |  | 
